Laboratory results from a melting point compilation (Tetko et al.).

melting point [°C]	Compound
220	CC1C(=O)C23C4CC5C(C)(CO)CCCC56COC(CC1C2OC(C)(C)O4)C63 (stereo not given)
317	c1ccc2c(c1)cc1ccc3c4ccccc4cc4ccc2c1c43
53 to 55	COC(=O)c1cnc(SC)n1C
75	CC(C)Cc1ccc(C(C)C(=O)O)cc1 (stereo not given)
-38	C[Si]1(C)O[Si](C)(C)O[Si](C)(C)O[Si](C)(C)O[Si](C)(C)O1
39	OCCn1ccnc1
103	Cc1cc2c(c(C)c1C)C(=O)C2
114	CCCCCCCCCCOc1ccc(C(=O)O)cc1
160	O=C1Cc2cc(S(=O)(=O)Cl)ccc2N1
-83	CCCCOC(=O)CC(=O)OCCCC
103 to 105	O=C(O)C1Cc2ccccc2N1C(=O)OCc1ccccc1 (stereo not given)
-124	CCCCOCC
-148	FC(F)(F)C(F)(F)C(F)(F)F
215 to 216	Clc1nc(Br)[nH]c1Cl
177	CC(C)(C)OC(=O)NC1(C(=O)O)CCCCC1
168	Cn1c(/C(C#N)=N/Nc2c(Cl)cc(Cl)cc2Cl)nc2ccccc21
-8.5	CCSCC(=O)O
140	COc1c(C(=O)O)csc1Cl
164	COc1ccc2c(c1)c1c3n2CCN(C)C3=NCC1
-103	CCC#CCC
251	O=C1C(C(O)c2ccccc2Cl)C(C(F)(F)F)=NN1c1ccccc1 (stereo not given)
38 to 43	Nc1ccc2c(c1)OCO2
84 to 86	O=CC1=C(Cl)c2cc(F)ccc2OC1
82	COc1cc(O)c(C(C)=O)c(OC)c1
42	CCOc1ccc(CCO)cc1
121 to 126	COc1ccc(CNc2ccccn2)cc1
127	COc1cc(C=CC(=O)O)cc(OC)c1OC

melting point [°C]	Compound
132	CC(C)CCCC(C)C1CCC2C3CCC4=CC(O)CCC4(C)C3CCC12C (stereo not given)
86 to 90	CC(C)(C)C(=O)Nc1ccccc1Cc1ccccc1
181	CSc1cc2c(c3c1CCc1ccccc1-3)c(=O)n(-c1ccccc1)n2C
114	CCC=C1CCC2C3CCC4CC(OC(C)=O)CCC4(C)C3CCC12C (stereo not given)
130	COC(=O)c1cc(Cl)ccc1NC(C)=O
141	CC(=O)OC1CC2C3CCC(C(C)CCCC(C)C)C3(C)CCC2C2(C)CCC(O)CC12O (stereo not given)
47 to 49	CN1CCOc2cc(Br)ccc21
267	CCO/C=N/c1c(C(=O)OCC)sc2sc(C(=O)OCC)c(/N=C/OCC)c12
182	O=C(O)C1NCCS1 (stereo not given)
58.5	C=C(CC(=O)OCC)C(=O)OCC
223 to 225	NNC(=O)CCc1ccc(O)cc1
300	O=S(=O)(O)CCN1CCN(CCS(=O)(=O)O)CC1
115	COc1ccccc1C(=O)Oc1ccc(/C=C/C(=O)c2ccccc2)cc1
211	O=C(Nc1cc(Cl)ccc1Cl)C(C(F)(F)F)C(F)(F)F
121 to 122	CN1C(=O)N2CCc3ccccc3C2(c2ccc(Cl)cc2)C1=O (stereo not given)
108	CC(=O)O[C@H]1C[C@H]2[C@@H]3CCC4CCCC[C@]4(C)[C@H]3CC[C@]2(C)C1 (stereo not given in full)
198	CC(=O)c1nn(-c2ccc(F)cc2)c(=N)s1
-99	CCCCCC(C)CCC (stereo not given)
229 to 232	Cn1c(=O)c(C(N)=S)cn(-c2ccccc2)c1=O
276	O=[N+]([O-])c1ccc(NN=C(Cc2ccccc2)C(Cc2ccccc2)=NNc2ccc([N+](=O)[O-])cc2)cc1
314	CC1(C)CC(=O)C2=C(C1)Nc1ccc3ccccc3c1C2c1ccc(O)cc1 (stereo not given)
86	CC(CCC(=O)O)n1nnc2ccccc21 (stereo not given)
200	CC(=O)Nc1ccc([N+](=O)[O-])cn1
41	O=[N+]([O-])c1ccc(Cl)cc1O
91	COc1cc(N=C=S)c(C(c2ccc(C)o2)c2ccc(C)o2)cc1OC
219	O=C1CCCC2=C1[C@@H](c1cccc([N+](=O)[O-])c1)[C@@H]1C(=O)CCC[C@@]1(O)O2
131	CCSc1nnc(NC(=O)C(F)(F)C(F)(F)C(F)(F)C(F)(F)C(F)(F)C(F)(F)C(F)(F)C(F)(F)F)s1

melting point [°C]	Compound
270 to 273	NC1=C(c2ccccc2)C(=O)c2ccccc21
69 to 71	O=C(OCc1ccc(Cl)cc1)c1cnc(Cl)nc1C(F)(F)F
300	Cc1cc(O)nc(N)n1
88	COc1ccc2c(c1)OC(c1ccccc1)CC2=O (stereo not given)
172 to 175	CCC1C(=O)CCC1=O
220 to 225	CC1=NN(c2ccc([N+](=O)[O-])cc2)C(=O)C1
-26.5	CCCCCCCCC=CCCCCCCCC(=O)OCCCC
94	O=C(O)C(O)c1ccc(F)c(F)c1 (stereo not given)
53	CC(C)N(C(=O)C(C(F)(F)F)C(F)(F)F)C(C)C
-4	ClC=C(Cl)C(Cl)=CCl
154 to 157	COC(=O)C1CC(=O)C(C(=O)OC)CC1=O (stereo not given)
154	Cc1nc(-c2ccc(C#N)cc2)cs1
222	Cc1ccc(Cn2ncc3c(N)ncnc32)cc1
280	Cn1c(=O)c(C2=NNC(=O)C2=Cc2ccc(Cl)cc2Cl)c(O)c2ccccc21
189	Cc1cc(-c2ccccc2)n(N)c(=O)c1C#N
151	O=C(O)c1c(F)c(F)cc(F)c1F
36	C#CCCCCCCCCCCCCCCCCCC
41.5	CC(C)(CCl)C(=O)O
236	C/C(=N\NC(N)=O)C1CC2(C)CCC1C2(C)C (stereo not given)
156 to 157	O=Cc1cn(S(=O)(=O)c2ccccc2)c2ccccc12
80 to 84	NC(=S)c1ccccc1F
91.5	CCCCNC(=O)c1ccc(Cl)cc1O
135 to 137	O=S(=O)(n1ccnc1)n1ccnc1
104 to 106	O=[N+]([O-])c1ccc2c(c1)c(CO)cn2Cc1ccccc1
20	CC(O)c1ccccc1 (stereo not given)
149	Cc1c(CN2CCOC(c3ccccc3)C2C)c(=O)n(-c2ccccc2)n1C (stereo not given)

Compound	melting point [°C]
COC(=O)C(C)Oc1ccc(Oc2ccc(Cl)cc2Cl)cc1 (stereo not given)	44
CC12CC(O)C3C(CCC4CC(O)CCC43C)C1CCC2=O (stereo not given)	235
N#CC(c1ccccc1)N1CCOCC1 (stereo not given)	69 to 71
Cc1cc(CCl)c(CCl)cc1C	104 to 106
CCc1cnc(C2=NC(C)(C(C)C)C(=O)N2)c(C(=O)O)c1 (stereo not given)	171
CCCCCCCC(=O)Cl	-63
Nc1ccccc1C(=O)OCc1ccccc1	76 to 78
COC(=O)c1cc([N+](=O)[O-])cc([N+](=O)[O-])c1	110
CCC(=Cc1ccccc1)[N+](=O)[O-]	90.5
N#Cc1cc(/N=C/C=C/c2ccccc2)n(-c2c(Cl)cc(C(F)(F)F)cc2Cl)n1	160
